Reference: US20220073496A1, “NOVEL QUINOLINE DERIVATIVE INHIBITOR” (Nanjing Transthera Biosciences Co., Ltd., priority 2018, published 2022)

What was measured:
TrkC (h) = biological target: T1, TrkC (h) (Homo sapiens, UniProt Q16288); assay: Enzymatic activity test, TrkC (h); assay type: biochemical; details: 10 μM [γ-33P]-ATP, 40 minutes, room temperature
T1 construct: purchased
Description: Assay 4: Enzymatic Activity Test of the Compound of the Present Invention
Test substances: the compounds of the present invention, wherein the structures and preparations thereof were as described above.
Preparation of the Compound Stock Solution
The compound was dissolved in 100% DMSO to prepare a stock solution with a maximum concentration of 500 μM.
Preparation of the Compound Working Solution
The compound stock solution was diluted to final concentrations of 500, 150, 50, 15. 5, 1.5, 0.5, 0.15 and 0.05 μM to become the compound working solutions (50×).
Preparation of Different Enzyme Reaction Solutions
The TrkC (h) enzyme was dissolved in 8 mM MOPS (pH 7.0), 0.2 mM EDTA, and 500 μM GEEPLYWSFPAKKK to prepare an enzyme solution having a final concentration of 38 nM. The enzymatic reaction was activated by using 10 mM magnesium acetate and 10 μM [γ-^33P]-ATP to form an Mg/ATP mixed solution.
In a 384-well plate, the compound working solution was added to final concentrations of 10000, 3000, 1000, 300, 100, 30, 10, 3, and 1 nM. Then different enzyme reaction solutions prepared according to the above conditions were added. The incubation was carried out for 40 minutes at room temperature. The test was terminated by the addition of a 0.5% phosphoric acid solution. 10 μL of the reaction solution was taken and dropped to the P30 filter paper. The filter paper was washed 4 times with 0.425% phosphoric acid solution and once with methanol, and then placed on a scintillation counter. The […] IC50 values were calculated using GraphPad 5.0 software.

Ba/F3 ETV6-NTRK2 cells = biological target: T2, Ba/F3 ETV6-NTRK2 cells (Homo sapiens, UniProt Q16620); assay: Cell viability test (CTG), Ba/F3 ETV6-NTRK2; assay type: cell-based; details: NTRK2 wild type cell, 72 hours, read-out: IC50 Ba/F3 ETV6-NTRK2
T2 construct: fused on or other part: P41212 (Transcription factor ETV6)
Description: Assay 8: Cell viability test of the compounds of the present invention
Ba/F3 ETV6-NTRK2 is an NTRK 2 wild type cell;
(§1) Test substances: the compounds of the present invention, wherein the structures thereof were as described above.
Test instrument: SpectraMax multi-label microplate reader.
Each cell was inoculated in a 96-well plate and adherent cells were cultivated overnight. Different concentrations of the compounds (9 dose groups, 3.16 times DMSO serial dilution) were added to give the final concentration of 0.1-1000 nM, and the final DMSO content was 1‰. The negative control wells contained the medium containing 1‰ DMSO. The cells were incubated at 37° C. in a condition of 5% CO2 and 95% humidity for 72 hours for use. An equal volume of CTG reagent was added to each well, and the cells were lysed by shaking for 5 minutes on an orbital shaker, and incubated for 20 minutes at room temperature to stabilize the cold light signal. The cold light signal was read with a microplate reader. Data were analyzed using GraphPad Prism 5.0 software, and data were fitted using nonlinear S-curve regression to derive a dose-response curve and thereby calculate IC50 values.

[1] = biological target: T3, pCSF1R in CSF1R plasmid-transfected HEK293T cells (Homo sapiens, UniProt P07333); assay: Inhibitory activity on the cell pCSF1R (Western Blot); assay type: cell-based; details: compound 30, 100, 300, 1000 nM, 120 minutes
T3 construct: expressed in transfected cells; host or cells: HEK293T
Description: Assay 7: Test for Inhibitory Activities of the Compounds of the Present Invention on the Cell pCSF1R
HEK293T is a human renal epithelial cell.
as §1
Test equipment: protein electrophoresis apparatus (manufactured by Bio Rad), transfer unit (manufactured by Bio Rad), exposure unit (manufactured by Tanon), CO2 cell incubator (manufactured by Thermo).
The BEK293T cells were inoculated in a 6-well plate (containing 10% FBS DMEM medium, 4×10^5 cells per well), and adherent cells were cultivated at 37° C. in a 5% CO2 condition for 6 hours. Each well was transfected with 2 μg CSF1R plasmid, and the cells were cultivated at 37° C. in a 5% CO2 condition overnight. At 24 hours after transfection, different concentrations of compounds were added to the administration group. The final compound concentrations were 30, 100, 300, and 1000 nM, and the final DMSO content was 1‰. The negative control wells contained the medium containing 1‰ DMSO. […] The inhibitory activity of the compound on the cell pCSF1R was examined.

T1 sequence (Q16288 32-839): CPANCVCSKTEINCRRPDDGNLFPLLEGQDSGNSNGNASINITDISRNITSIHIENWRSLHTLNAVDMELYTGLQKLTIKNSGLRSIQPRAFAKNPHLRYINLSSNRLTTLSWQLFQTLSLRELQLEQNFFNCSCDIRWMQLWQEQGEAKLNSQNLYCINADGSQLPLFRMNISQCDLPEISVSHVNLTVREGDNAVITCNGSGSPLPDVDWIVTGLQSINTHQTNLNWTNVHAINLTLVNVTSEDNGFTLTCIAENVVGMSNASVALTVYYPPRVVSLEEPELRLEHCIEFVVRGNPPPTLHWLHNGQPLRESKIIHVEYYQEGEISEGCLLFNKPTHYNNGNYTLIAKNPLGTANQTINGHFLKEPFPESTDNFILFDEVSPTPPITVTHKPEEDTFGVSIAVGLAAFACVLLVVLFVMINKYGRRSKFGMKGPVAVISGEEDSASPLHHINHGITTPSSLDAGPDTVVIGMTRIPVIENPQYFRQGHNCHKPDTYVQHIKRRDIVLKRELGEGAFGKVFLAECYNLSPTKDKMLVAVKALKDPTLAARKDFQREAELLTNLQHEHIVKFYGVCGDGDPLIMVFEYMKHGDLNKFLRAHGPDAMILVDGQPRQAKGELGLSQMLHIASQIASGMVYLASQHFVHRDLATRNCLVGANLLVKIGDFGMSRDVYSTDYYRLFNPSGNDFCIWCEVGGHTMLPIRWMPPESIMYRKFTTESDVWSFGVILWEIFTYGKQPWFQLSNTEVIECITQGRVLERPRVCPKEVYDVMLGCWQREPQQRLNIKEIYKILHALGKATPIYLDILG
T3 sequence (P07333 20-972): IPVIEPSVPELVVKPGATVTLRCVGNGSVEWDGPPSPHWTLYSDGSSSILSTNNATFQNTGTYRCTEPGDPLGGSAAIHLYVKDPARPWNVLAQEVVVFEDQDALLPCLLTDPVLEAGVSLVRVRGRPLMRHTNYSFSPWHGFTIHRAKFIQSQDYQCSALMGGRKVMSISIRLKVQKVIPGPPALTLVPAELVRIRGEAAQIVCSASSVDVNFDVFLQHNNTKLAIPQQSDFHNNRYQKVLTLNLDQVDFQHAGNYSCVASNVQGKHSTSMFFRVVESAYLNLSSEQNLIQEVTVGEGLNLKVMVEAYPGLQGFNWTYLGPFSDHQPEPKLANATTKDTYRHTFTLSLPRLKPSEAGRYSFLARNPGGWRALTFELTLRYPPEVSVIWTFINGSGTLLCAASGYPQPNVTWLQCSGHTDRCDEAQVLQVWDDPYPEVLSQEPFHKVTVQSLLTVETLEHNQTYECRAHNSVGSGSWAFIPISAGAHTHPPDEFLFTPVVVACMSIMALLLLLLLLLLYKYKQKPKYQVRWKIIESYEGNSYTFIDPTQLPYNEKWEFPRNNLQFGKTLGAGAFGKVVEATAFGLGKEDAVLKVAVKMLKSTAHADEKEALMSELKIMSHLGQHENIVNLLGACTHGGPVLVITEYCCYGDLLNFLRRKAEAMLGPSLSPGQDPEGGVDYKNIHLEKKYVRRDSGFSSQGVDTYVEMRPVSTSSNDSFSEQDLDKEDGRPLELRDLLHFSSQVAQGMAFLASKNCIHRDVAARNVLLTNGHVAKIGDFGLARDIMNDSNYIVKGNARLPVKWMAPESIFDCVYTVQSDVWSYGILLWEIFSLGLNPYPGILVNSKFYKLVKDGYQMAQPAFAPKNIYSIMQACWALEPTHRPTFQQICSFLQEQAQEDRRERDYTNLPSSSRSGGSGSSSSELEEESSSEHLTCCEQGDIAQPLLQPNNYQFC
T2 sequence (Q16620 whole entry, change not shown, the tested form may be a part): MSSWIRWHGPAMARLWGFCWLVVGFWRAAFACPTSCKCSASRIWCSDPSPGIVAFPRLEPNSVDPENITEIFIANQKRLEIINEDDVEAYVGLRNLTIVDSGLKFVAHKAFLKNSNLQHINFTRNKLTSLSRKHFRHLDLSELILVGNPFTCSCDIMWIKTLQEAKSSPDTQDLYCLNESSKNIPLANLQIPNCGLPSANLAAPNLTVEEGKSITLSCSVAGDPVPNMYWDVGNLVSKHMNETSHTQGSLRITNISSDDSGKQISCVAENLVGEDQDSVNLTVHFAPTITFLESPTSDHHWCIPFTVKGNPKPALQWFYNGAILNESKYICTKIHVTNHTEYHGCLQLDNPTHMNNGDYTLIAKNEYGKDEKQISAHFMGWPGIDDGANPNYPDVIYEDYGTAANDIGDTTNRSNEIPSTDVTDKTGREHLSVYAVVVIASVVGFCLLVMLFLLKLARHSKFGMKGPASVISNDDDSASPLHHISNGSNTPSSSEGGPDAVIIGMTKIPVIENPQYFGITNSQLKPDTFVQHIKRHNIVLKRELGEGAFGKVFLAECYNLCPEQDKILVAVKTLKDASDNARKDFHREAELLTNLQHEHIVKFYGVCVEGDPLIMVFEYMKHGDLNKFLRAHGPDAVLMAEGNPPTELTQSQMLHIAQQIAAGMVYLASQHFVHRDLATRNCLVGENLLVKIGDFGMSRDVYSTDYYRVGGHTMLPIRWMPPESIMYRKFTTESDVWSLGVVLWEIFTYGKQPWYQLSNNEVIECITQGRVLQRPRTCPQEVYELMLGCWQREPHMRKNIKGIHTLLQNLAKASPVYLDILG

Structure (SMILES)	IC50 (TrkC (h)) [nM]	IC50 [1] [nM]	GI50 (Ba/F3 ETV6-NTRK2 cells) [nM]
COc1cc2nccc(Oc3ncc(NC(=O)c4cn(C(C)C)nc(-c5ccc(F)cc5)c4=O)cn3)c2cc1OC [Compound 40, N-(2-((6,7-dimethoxyquinolin-4-yl)oxy)pyrimidine-5-yl)-6-(4-fluorophenyl)-2-isopropyl-5-oxo-2,5-dihydropyridazine-4-carboxamide]	14		
COc1cc2nccc(Oc3cnc(NC(=O)c4cn(C(C)C)nc(-c5ccc(F)cc5)c4=O)nc3)c2cc1OC [Compound 39, N-(5-((6,7-dimethoxyquinolin-4-yl)oxy)pyrimidine-2-yl)-6-(4-fluorophenyl)-2-isopropyl-5-oxo-2,5-dihydropyridazine-4-carboxamide]	10		
COc1cc2nccc(Oc3ccc(NC(=O)c4nn(C(C)C)cc(-c5ccc(F)cc5)c4=O)nc3)c2cc1OC [Compound 15, N-(5-((6,7-dimethoxyquinolin-4-yl)oxy)pyridin-2-yl)-5-(4-fluorophenyl)-1-isopropyl-4-oxo-1,4-dihydropyridazine-3-carboxamide]	6	100 to 300	16.4
COc1cc2nccc(Oc3ncc(NC(=O)c4nn(C(C)C)cc(-c5ccc(F)cc5)c4=O)cn3)c2cc1OC [Compound 34, N-(2-((6,7-dimethoxyquinolin-4-yl)oxy)pyrimidine-5-yl)-5-para-fluorophenyl-1-isopropyl-4-oxo-1,4-dihydropyridazine-3-carboxamide]	6		109
COc1cc2nccc(Oc3ccc(NC(=O)c4cn(C(C)C)nc(-c5ccc(F)cc5)c4=O)cn3)c2cc1OC [Compound 38, N-(6-((6,7-dimethoxyquinolin-4-yl)oxy)pyridin-3-yl)-6-para-fluorophenyl-2-isopropyl-5-oxo-2,5-dihydropyridazine-4-carboxamide]	8		
COc1cc2nccc(Oc3cnc(NC(=O)c4nn(C5CC5)cc(-c5ccc(F)cc5)c4=O)nc3)c2cc1OC [Compound 33]	5		

Now those with a lower IC50 (TrkC (h)), led by results:

IC50 (TrkC (h)) [nM]	IC50 [1] [nM]	Structure (SMILES)	GI50 (Ba/F3 ETV6-NTRK2 cells) [nM]
4		COc1cc2nccc(Oc3ncc(NC(=O)c4nn(C5CC5)cc(-c5ccc(F)cc5)c4=O)cn3)c2cc1OC [Compound 37, 1-cyclopropyl-N-(2-((6,7-dimethoxyquinolin-4-yl)oxy)pyrimidine-5-yl)-5-para-fluorophenyl-4-oxo-1,4-dihydropyridazine-3-carboxamide]	
3		COc1cc2nccc(Oc3ccc(NC(=O)c4nn(C5CC5)cc(-c5ccc(F)cc5)c4=O)cn3)c2cc1OC [Compound 36]	
3	30 to 100	COc1cc2nccc(Oc3ccc(NC(=O)c4nn(C5CC5)cc(-c5ccc(F)cc5)c4=O)nc3)c2cc1OC [Compound 31]	
